Results from PMC9343080, “Distribution- and Metabolism-Based Drug Discovery: A Potassium-Competitive Acid Blocker as a Proof of Concept” (Research, 2022).
Read-outs that look alike come from different tables or passages of the source.

What was measured:
[1] = log D7.4 measurement (1-octanol/PBS pH 7.4); type: physicochemical
Experimental: Procedure for pKa and log D7.4 measurements. The pKa was determined using pH-metric Method from DMSO Stock Solution. Procedure for Log D determinations: 15 µL of stock solutions of test compounds and control compound was placed in order into their proper 96-well rack. 500 µL of PBS saturated 1-octanol was added into each vial of the cap-less Log D plate followed by the addition of 500 µL of 1-octanol saturated PBS (pH 7.4). One stir stick was added to each vial and a molded PTFE/Silicone plug was used to seal each vial. Then the Log D plate was transferred to the Eppendorf Thermomixer Comfort plate shaker and shaken at 25°C at 1,100 RPM for 1 hour. After completion of 1 hour, plugs were removed and the stir sticks were removed using a big magnet. The samples were then centrifuged at 25°C at 20,000 g for 20 minutes to separate the phases, and pipette and syringe were used to remove the upper (1-octanol) and lower (buffer) phases to the empty tubes, respectively. Aliquots of 5 µL were taken from upper phases followed by addition of 495 µL of a mixture of H2O and acetonitrile (1:1 in v/v). Vortex for 1 minute, and then aliquots of 50 µL were taken from the diluent followed by addition of 450 µL of a mixture of H2O and acetonitrile (1:1 in v/v). And aliquots of 50 µL were taken from lower phases followed by addition of 450 µL of a mixture of H2O and acetonitrile (1:1 in v/v). 200 μL of diluent was transferred to a new 96-well plate for LC-MS/MS analysis. The dilution factor was changed according to the Log D value and the LC-MS signal response. The concentrations of test compound and control compound in 1-octanol/buffer solution were evaluated by LC-MS/MS. The Log D values of the test compounds and control compound were calculated as follows: […]

[2] = Human microsomal stability; type: in vitro ADME
Experimental: The in vitro metabolic stabilities of selected compounds were performed using human and rat liver microsomes in triplicate as described previously.

[3] = Tissue distribution of SH-337 in rats (LC-MS/MS); type: in vivo, rat; settings: for concentration at 15 min / concentration at 1 h / concentration at 2 h / concentration at 4 h / concentration at 24 h: po, 4 mg/kg
Experimental: 15 SPF male SD rats were randomly divided into 5 groups, three per group. Fasting was for 4 hours. Plasma, heart, liver, and stomach were obtained 0.25, 1, 2, 4, and 24 hours after oral administration of SH-337 (0.4 mg/mL in water) at a dose of 4 mg/kg. At designated time points, rats were anesthetized with ether, and the blood samples were collected via the abdominal aorta. The blood was immediately cooled under ice-chilled conditions and centrifuged at approximately 1500 × g at 4°C for 10 minutes to obtain the plasma. For plasma: 20 μL Std samples in duplicate, QC samples in duplicate, and rat plasma samples were mixed with 60 μL ACN containing IS (200 ng/mL of tolbutamide, 50 ng/mL of propranolol, and 500 ng/mL of Dic) in EP tubes. After the mixture was vortexed for 1 min and then centrifuged for 10 min (13000 rpm, 4°C), transfer 50 μL supernatant to a 96-well plate with 150 μL pure water, shake for 10 min, and finally analyze by LC-MS/MS. For heart and liver: tissue samples were added with 3-folds (w/v) saline in terms of the weight of samples and then homogenated. 20 μL Std samples in duplicate, QC samples in duplicate, and rat heart and liver samples were mixed with 60 μL ACN containing IS (200 ng/mL of tolbutamide, 50 ng/mL of propranolol, and 500 ng/mL of Dic) in EP tubes. After the mixture was vortexed for 1 min and then centrifuged for 10 min (13000 rpm, 4°C), transfer 50 μL supernatant to a 96-well plate with 150 μL pure water, shake for 10 min, and finally analyze by LC-MS/MS. For stomach: tissue samples were added with 3-folds (w/v) saline in terms of the weight of samples and then homogenated. 20 μL Std samples in duplicate, QC samples in duplicate, and rat stomach samples were mixed with 60 μL ACN containing IS (200 ng/mL of tolbutamide, 50 ng/mL of propranolol, and 500 ng/mL of Dic) in EP tubes. After the mixture was vortexed for 1 min and then centrifuged for 10 min (13000 rpm, 4°C), transfer 50 μL supernatant to a 96-well plate with 150 μL pure water, shake for 10 min, and finally analyze by LC-MS/MS.

[4] = Metabolite identification and profiling in rat hepatocytes; type: in vitro ADME; settings: SH-337, rat hepatocytes, 60 min incubation
Experimental: (§1) SH-337 was incubated with rat or human hepatocytes at a concentration of 1.0 × 10^6 cells/mL for 60 min or 120 min (rat 60 min, human 120 min) at 37°C in a CO2 incubator. The samples were precipitated with acetonitrile at 1 : 2 and further centrifuged; the supernatants were dried with a stream of N2 gas. The residues were reconstituted with 300 μL of 10% acetonitrile/H2O (0.1% TFA) and analyzed by LC-MS/MS. The assays were pursued under the conditions provided in Supplementary Tables S5–S8.

[5] = Metabolite identification and profiling in human hepatocytes; type: in vitro ADME; settings: SH-337, human hepatocytes, 120 min incubation
Experimental: as §1

[6] = rats, single oral 4 mg/kg SH-337
[7] = stomach-liver distribution ratio, rats, oral 4 mg/kg

CNCc1cc(-c2ccc(OCC3CC3)cc2F)n(S(=O)(=O)c2cccnc2)c1.Cl.Cl [SH-337, 1-(5-(4-(cyclopropylmethoxy)-2-fluorophenyl)-1-(pyridin-3-ylsulfonyl)-1H-pyrrol-3-yl)-N-methylmethanamine dihydrochloride]
logD at 1 h ([1]; 1-octanol/PBS, pH 7.4, pH 7.4): 1.3
log D7.4 ([1]; pH 7.4): 1.28
fold reduction of t1/2 vs. vonoprazan ([2]; human microsomes): 4.2 fold
half-life ([2]; human, human liver microsomes, read-out: Metabolic stability (t1/2) human): 1.36 h
C Stomach/CLiver (stomach-liver distribution ratio) ([3]; AUC, rats, i.g. 4 mg/kg SH-337): 7.1
concentration at 15 min ([3]; male, SD, rat, liver, rats, single oral 4 mg/kg SH-337, read-out: Concentration, Liver, 15 min): 5240 ng/mL
concentration at 1 h ([3]; male, SD, rat, liver, rats, single oral 4 mg/kg SH-337, read-out: Concentration, Liver, 1 h): 846 ng/mL
concentration at 2 h ([3]; male, SD, rat, liver, rats, single oral 4 mg/kg SH-337, read-out: Concentration, Liver, 2 h): 262 ng/mL
concentration at 4 h ([3]; male, SD, rat, liver, rats, single oral 4 mg/kg SH-337, read-out: Concentration, Liver, 4 h): 145 ng/mL
concentration at 24 h ([3]; male, SD, rat, liver, rats, single oral 4 mg/kg SH-337, read-out: Concentration, Liver, 24 h): 1.3 ng/mL
concentration at 1 h ([3]; male, SD, rat, plasma, rats, 1 h after oral administration of 4.0 mg/kg (Table 2), read-out: Drug concentration, Plasma): 7.1 ng/mL
concentration at 15 min ([3]; male, SD, rat, plasma, rats, single oral 4 mg/kg SH-337, read-out: Concentration, Plasma, 15 min): 9.4 ng/mL
concentration at 1 h ([3]; male, SD, rat, plasma, rats, single oral 4 mg/kg SH-337, read-out: Concentration, Plasma, 1 h): 15.5 ng/mL
concentration at 2 h ([3]; male, SD, rat, plasma, rats, single oral 4 mg/kg SH-337, read-out: Concentration, Plasma, 2 h): 5.1 ng/mL
concentration at 4 h ([3]; male, SD, rat, plasma, rats, single oral 4 mg/kg SH-337, read-out: Concentration, Plasma, 4 h): 6.7 ng/mL
AUC(0-t) ([3]; male, SD, rat, plasma, rats, single oral 4 mg/kg SH-337, read-out: AUC-last, Plasma): 32.6 ng·h/mL
Kp ([3]; male, SD, rat, stomach / plasma, oral, AUC, rats, i.g. 4 mg/kg SH-337, read-out: C Stomach/CPlasma (stomach-plasma distribution ratio)): 1360
concentration at 1 h ([3]; male, SD, rat, stomach, rats, 1 h after oral administration of 4.0 mg/kg (Table 2), read-out: Drug concentration, Stomach): 6690 ng/mL
concentration at 15 min ([3]; male, SD, rat, stomach, rats, single oral 4 mg/kg SH-337, read-out: Concentration, Stomach, 15 min): 9820 ng/mL
concentration at 1 h ([3]; male, SD, rat, stomach, rats, single oral 4 mg/kg SH-337, read-out: Concentration, Stomach, 1 h): 3340 ng/mL
concentration at 2 h ([3]; male, SD, rat, stomach, rats, single oral 4 mg/kg SH-337, read-out: Concentration, Stomach, 2 h): 3030 ng/mL
concentration at 4 h ([3]; male, SD, rat, stomach, rats, single oral 4 mg/kg SH-337, read-out: Concentration, Stomach, 4 h): 2810 ng/mL
concentration at 24 h ([3]; male, SD, rat, stomach, rats, single oral 4 mg/kg SH-337, read-out: Concentration, Stomach, 24 h): 136 ng/mL
Kp at 1 h ([3]; male, SD, rat, ratio of stomach to plasma distribution 1 h after oral administration of 4.0 mg/kg, read-out: C Stomach/CPlasma): 943
AUC0–24, Liver ([3]; rats, i.g. 4 mg/kg SH-337): 6155.6 ng equiv. h/mL or g
AUC0–24, Plasma ([3]; rats, i.g. 4 mg/kg SH-337): 32.6 ng equiv. h/mL or g
AUC0–24, Stomach ([3]; rats, i.g. 4 mg/kg SH-337): 44240.4 ng equiv. h/mL or g
retention in the stomach ([3]; rats, oral 4 mg/kg): more than 24 h
AUC-last, Liver [3, 6]: 6155.6 ng·h/g
AUC-last, Stomach [3, 6]: 44240.4 ng·h/g
Concentration, Plasma, 24 h ([3]; rats, single oral 4 mg/kg SH-337, BLQ: below limit of quantification): BLQ
CStomach/CLiver, 15 min [3, 7]: 1.9
CStomach/CLiver, 1 h [3, 7]: 3.95
CStomach/CLiver, 2 h [3, 7]: 11.6
CStomach/CLiver, 4 h [3, 7]: 19.4
CStomach/CLiver, 24 h [3, 7]: 104.9
Relative peak area, RHeps [4]: 28.2%
Relative peak area, Hheps [5]: 76.5%
